From ChEMBL document CHEMBL2094269, “WEHI/Eskitis Trypanosoma b. brucei screening data” come the findings set out here.

For this test, the system named is Trypanosoma brucei brucei. Kind of test: microbe, parasite or virus in culture. Format: functional, organism-based, STIB 795. Particulars: Trypanosoma brucei, STIB 795.
Description: DNDI: Inhibition of Human African Trypanosomiasis (HAT), STIB 795, in vitro
Broadly, the IC50 is the concentration that gives 50% inhibition. A lower IC50 goes with greater potency in that assay. `CCN(CC)CCn1c2ccccc2c2nc3ccccc3nc21` came in with an IC50 of over 10.4 µM.
`Cc1cccc(C(=N)NOC(=O)c2ccc3c(c2)OCO3)c1` returned an IC50 of over 10.4 µM.
The figure for `Oc1ccc(CN2CCC(Cc3ccccc3)CC2)c2cccnc12` is over 10.4 µM; for `Brc1ccc(C2Nc3cccc4cccc(c34)N2)o1` it is over 10.4 µM; for `Cn1c(SC2=CS(=O)(=O)c3ccccc32)nc2ccccc21` it is over 10.4 µM.
For the compound `COc1cc(C(=O)O/N=C(\N)c2ccncc2)cc(OC)c1OC`, the IC50 is over 10.4 µM.
Turning to `CCOC(=O)C(=Cc1ccc(Br)cc1)C(=O)OCC`, the IC50 was over 10.4 µM.
The figure for `C=CCc1c(C)nc(SC)nc1Nc1ccc(C(C)=O)cc1` is over 10.4 µM.
Turning to `CCC(=O)Nc1nc2ccccc2n1Cc1ccccc1C`, the 50% inhibitory concentration (IC50) was over 10.4 µM.
In turn, `COc1cc(NS(=O)(=O)c2ccc(C)cc2)c2ncccc2c1` returned an IC50 of over 10.4 µM.
`N=C(Cc1cccc2ccccc12)NOC(=O)c1cccs1` showed an IC50 of over 10.4 µM.
Compound `COC(=O)c1sc(=S)n(-c2cc(F)ccc2F)c1N` displayed a concentration for half-maximal inhibition (IC50) of over 10.4 µM.
The figure for `N=C(NOC(=O)c1ccoc1)c1ccc(Br)cc1` is over 10.4 µM; for `N=C(NOC(=O)c1cccc(Br)c1)c1ccncc1` it is over 10.4 µM.
Compound `N=C(NOC(=O)c1ccc(Cl)c(Cl)c1)c1ccccn1` came in with an IC50 of over 10.4 µM.
The figure for `CCOc1ccc2c(C)nc(NC3=NC(C)=CC(C)(C)N3)nc2c1` is over 10.4 µM; for `COc1nc(Nc2nc(O)c3ccccc3n2)nc2ccc(C)cc12` it is over 10.4 µM.
`CC(C)N1C/C(=C/c2ccsc2)C(=O)/C(=C/c2ccsc2)C1` registered an IC50 of over 10.4 µM.
The figure for `N=C(NOC(=O)C12CC3CC(CC(C3)C1)C2)c1cccnc1` is over 10.4 µM; for `N=C(N)Nc1nc(-c2ccccc2)c2cc(Cl)ccc2n1` it is over 10.4 µM; for `CC(=O)c1cccc(Nc2cc(C)nc3c(C)cc(C)cc23)c1` it is over 10.4 µM.
The figure for `CN(C)CCOC1c2ccccc2CCc2ccc3ccccc3c21` (stereo not given) is over 10.4 µM.
Under `c1ccc(/C(=N\Nc2nc3ccccc3s2)c2ccccn2)cc1` stands over 10.4 µM.
For `COc1ccc(O)c(/C=N/NC(=O)c2cccc3ccccc23)c1`, the IC50 is over 10.4 µM.
Under `O=C1/C(=C2\NCC(c3ccccc3)O2)Sc2ccccc21` (stereo not given) stands over 10.4 µM.
The figure for `S=C1N(c2ccccc2)c2ccccc2C12CCOCC2` is over 10.4 µM; for `CN(C)CCCC1=Cc2ccccc2Sc2ccccc21` it is over 10.4 µM; for `Fc1ccccc1Cn1c(C2CCCO2)nc2ccccc21` (stereo not given) it is over 10.4 µM.
The figure for `O=c1c(-c2ccccc2)c(-c2ccccc2)[nH]c2ccccc12` is over 10.4 µM; for `Oc1ccc(/C=N/N2CCN(c3ccccc3)CC2)cc1O` it is over 10.4 µM.
In the case of `COc1ccc(/C(N)=N/OC(=O)c2ccc(C)c(C)c2)cc1`, the IC50 is over 10.4 µM.
`CC(C)(C)c1ccc(C(=O)NNC(=O)c2cnccn2)cc1` gave an IC50 of over 10.4 µM.
Under `O=c1c(Cl)c(Cl)cnn1C12CC3CC(CC(C3)C1)C2` stands over 10.4 µM.
Under `Cc1c(-c2noc(C(=O)NC(C)C)n2)oc2c(C)cccc12` stands over 10.4 µM; under `CCOC(=O)c1c(C)[nH]c(=S)c(C#N)c1-c1ccncc1`, over 10.4 µM; under `c1ccc(Nc2n[n+](-c3ccccc3)nc3ccccc23)cc1`, over 10.4 µM.
Under `CC(C)CCn1c(C(C)N2CCCCC2)nc2ccccc21` (stereo not given) stands over 10.4 µM; under `CCC(=O)c1sc(Nc2ccc(F)c(Cl)c2)nc1N`, over 10.4 µM; under `O=C(CCN1CCCCC1)Nc1ccc(C2CCCC2)cc1`, over 10.4 µM.
In the case of `CCCN(CCC)CC(O)COc1ccc2ccccc2c1` (stereo not given), the IC50 was over 10.4 µM.
`O=C1C(=O)/C(=C/c2ccccc2)CCC/C1=C/c1ccccc1` had an IC50 of over 10.4 µM.
The compound `COC(=O)C1=C(C)NC(=O)/C1=C\c1cccc(OC)c1OC` came in with an IC50 of over 10.4 µM.
The compound `NCC(OCc1ccc(-c2ccccc2)cc1)c1ccccc1` (stereo not given) registered an IC50 of over 10.4 µM.
The figure for `Clc1ccc(Sc2ccc(/C=N/n3cnnc3)o2)cc1` is over 10.4 µM; for `Oc1ccccc1/C=N/Nc1nc2ccccc2n2nnnc12` it is over 10.4 µM; for `Cc1cc(C)c2nc(C)cc(Nc3ccc(N(C)C)cc3)c2c1` it is over 10.4 µM.
Turning to `O=C(Nc1ccnc(Cl)c1)NC12CC3CC(CC(C3)C1)C2`, the IC50 is over 10.4 µM.
For `COc1ccc2c(C)c/c(=N/N=C\c3ccccc3O)[nH]c2c1`, the half-inhibitory concentration (IC50) is over 10.4 µM.
The figure for `COc1nc(Nc2ccc(Cl)cc2)nc(NC(C)(C)C)n1` is over 10.4 µM.
On to `O=C1C(=O)c2c(C(=O)c3cccs3)coc2-c2ccccc21`, for which the IC50 is over 10.4 µM.
Under `CCOC(=O)Cc1csc(NC(=O)c2ccccc2F)n1` stands over 10.4 µM.
Compound `Cc1cc(C(=O)N/N=C/c2c(O)ccc3ccccc23)c(C)o1` displayed an IC50 of over 10.4 µM.
In turn, `Cc1ccn(CC(=O)N/N=C/c2c(O)ccc3ccccc23)n1` returned an IC50 of over 10.4 µM.
Under `C(=N\n1cnnc1)/c1cccc(OCCOc2ccccc2)c1` stands over 10.4 µM.
Under `CCOC(=O)c1sc(=S)n(-c2ccccc2CC)c1N` stands over 10.4 µM.
Under `O=C(N/N=C/c1ccc(O)c2ncccc12)c1ccc(F)cc1` stands over 10.4 µM; under `N#Cc1ccc(-c2csc(NNC(=O)c3ccco3)n2)cc1`, over 10.4 µM; under `c1ccc(-c2nnc(-c3ccccn3)nc2-c2ccccc2)cc1`, over 10.4 µM.
In the case of `C=CC1=Nc2ccccc2C(c2ccccc2)(c2ccccc2)N1`, the 50% inhibitory concentration (IC50) is over 10.4 µM.
Consider `O=C(CN1C2=NCCN2c2ccccc21)c1ccc(Cl)cc1`, for which the IC50 was over 10.4 µM.
As to `COc1cc(/C=C/c2cc(C(F)(F)F)nc(=O)[nH]2)ccc1O`, the IC50 was over 10.4 µM.
In the case of `COC(=O)c1ccccc1N/N=N/c1nc2ccccc2s1`, the IC50 was over 10.4 µM.
Take `CCN(CC)c1ccc(/C=N\NC(=O)c2ccccn2)c(O)c1`: the IC50 was over 10.4 µM.
Under `O=C1C=C(N2CCCCC2c2cccnc2)C2(CCCCC2)O1` (stereo not given) stands over 10.4 µM; under `COCCN1CSC(=S)N(Cc2ccc(OC)cc2)C1`, over 10.4 µM.
Under `CN(C)CCCC1(C)Oc2ccccc2Sc2ccccc21` (stereo not given) stands over 10.4 µM; under `CSc1cccc(C(=O)Nc2cc(F)c(F)cc2Cl)c1`, over 10.4 µM; under `N#CC(c1ccc(Cl)cc1Cl)c1cnnc2ccccc12` (stereo not given), over 10.4 µM.
The compound `COc1ccc(-c2cc(-c3c(O)ccc4ccccc34)n[nH]2)cc1` showed an IC50 of over 10.4 µM.
As to `C1CCC(Nc2nc3nonc3nc2NC2CCCCC2)CC1`, the IC50 was over 10.4 µM.
Under `Oc1ccc(/N=N/c2ccccc2C(F)(F)F)c2cccnc12` stands over 10.4 µM.
The compound `CC(C)(C)c1ccc(CCC2OCC(CN3CCCC3)O2)cc1` (stereo not given) gave an IC50 of over 10.4 µM.
`COc1ccc(/C(N)=N/OC(=O)c2ccccc2F)cc1OC` came in with an IC50 of over 10.4 µM.
`CCOc1ccc(C(=O)CC(c2ccccc2)C(C#N)C#N)cc1` (stereo not given) had an IC50 of over 10.4 µM.
The figure for `Cc1ccc2cc3c(nc2c1)-c1ccccc1/C3=N/NC(N)=S` is over 10.4 µM; for `N#Cc1nc2c(c(N3CCNCC3)c1-c1ccccc1)CCCC2` it is over 10.4 µM.
Consider `COc1ccccc1-c1nnc(Cc2ccc(F)cc2Cl)o1`, for which the IC50 was over 10.4 µM.
`CN(C)CC/C=C(\c1ccccc1)c1cccc(C(F)(F)F)c1` showed an IC50 of over 10.4 µM.
Under `O=C(NCC1CCCO1)c1cnc2sc3c(n2c1=O)CCC3` (stereo not given) stands over 10.4 µM; under `Cc1ccsc1C=NN1CCN(c2ccc(Cl)cc2)CC1`, over 10.4 µM; under `Cc1ccc(N2CCN(c3ccc4nnc(C)n4n3)CC2)c(C)c1`, over 10.4 µM.
`Cc1ccc(O)c(/C=N/NC(=O)c2[nH]ncc2Br)c1`: the IC50 was over 10.4 µM.
The figure for `Nc1cc(NC(=O)c2ccncc2)cc(Oc2ccc(F)cc2)c1` is over 10.4 µM.
The figure for `NC(=S)N/N=C(/c1ccc(C(F)(F)F)cc1)c1ccccn1` is over 10.4 µM.
Under `COCc1nc2ccccc2n1CCCCOc1cccc(C)c1` stands over 10.4 µM.
The compound `O=C(/C(=C/c1cccnc1)c1nc2ccccc2[nH]1)c1ccccc1` gave a half-inhibitory concentration (IC50) of over 10.4 µM.
`COc1ccc2c(c1)SCc1ccccc1/C2=C\CCN(C)C`: the IC50 was over 10.4 µM.
Under `CCCCN(CCCC)CCNC(=O)Nc1ccc(Cl)cc1` stands over 10.4 µM; under `Oc1ccc(Br)c2ccc(/C=C/c3ccccc3)nc12`, over 10.4 µM.
`C=CCc1cccc(/C=N/NC(=O)c2cc(C(C)(C)C)n[nH]2)c1O` had an IC50 of over 10.4 µM.
Under `Cc1c(-c2cc(Cl)cc3c2OC(C)(C)C3=O)ccc(N)c1C#N` stands over 10.4 µM.
For `CCCCCOc1ccc(NC(=N)Nc2nc(C)cc(C)n2)cc1`, the 50% inhibitory concentration (IC50) is over 10.4 µM.
The figure for `COc1ccc(-c2nc3c(=O)n(C)c(=O)nc-3n(C)n2)cc1OC` is over 10.4 µM.
Compound `Cc1nn(C(=N)N)c(C)c1C1c2ccccc2CCc2ccccc21` had a half-maximal inhibitory concentration (IC50) of over 10.4 µM.
With `Fc1cccc(Cl)c1COc1ccc(/C=N/n2cnnc2)cc1`, the IC50 was over 10.4 µM.
`Clc1ncnc2c1C(c1ccccc1)c1c(Cl)ncnc1O2` returned a 50% inhibitory concentration (IC50) of over 10.4 µM.
On to `C/C(=N\Nc1nnc2c(n1)[nH]c1c(C)cccc12)c1ccccc1O`, for which the IC50 is over 10.4 µM.
The figure for `CCCNc1nc(NC2CCCCC2)nc(NC2CCCCC2)n1` is over 10.4 µM.
The figure for `Cc1ccc(Nc2nc3nonc3nc2NC(C)(C)C)cc1Cl` is over 10.4 µM.
The figure for `Cc1ccc(S(=O)(=O)Nc2ccc(Cl)c3cccnc23)cc1` is over 10.4 µM.
On to `Cc1cc(OCC(=O)NNc2ccccc2)c(C(C)C)cc1Cl`, for which the IC50 is over 10.4 µM.
Consider `CC(Nc1cccc2ccccc12)C(=O)N/N=C/c1cccc(O)c1` (stereo not given), for which the IC50 was over 10.4 µM.
Under `COC(=O)c1cccc(Nc2nc(N)c(C(=O)CC(C)C)s2)c1` stands over 10.4 µM; under `Nc1ccccc1S(=O)(=O)Nc1cccc2cccnc12`, over 10.4 µM.
With `NS(=O)(=O)c1ccc(N/C=C2\C(=O)Nc3ccccc32)cc1`, the IC50 is over 10.4 µM.
Regarding `CCCCC(CC)C(=O)Nc1ccc2ccc3cccnc3c2n1` (stereo not given), the IC50 was over 10.4 µM.
In the case of `c1ccc(-c2cc(-c3ccccn3)nc(-c3ccccn3)c2)cc1`, the half-maximal inhibitory concentration (IC50) was over 10.4 µM.
Consider `c1ccc(CCCNc2ccnc3cc4ccccc4cc23)cc1`, for which the IC50 is over 10.4 µM.
The figure for `CC(Cc1ccccc1)NCCC1c2ccccc2-c2ccccc21` (stereo not given) is over 10.4 µM; for `CN(C)CCCC1Sc2ccccc2Sc2ccccc21` (stereo not given) it is over 10.4 µM.
